# Laboratory results as given in patent US20170037007A1, “SUBSTITUTED N-(2-(AMINO)-2OXOETHYL)BENZAMIDE INHIBITORS OF AUTOTAXIN AND THEIR PREPARATION AND USE IN THE TREATMENT OF LPA-DEPENDENT OR LPA-MEDIATED DISEASES” (X-Rx, Inc., priority 2014, published 2017).
# Biological target: T1, Autotaxin (Homo sapiens, UniProt Q13822)
# T1 construct: purchased X-Chem
# Experiment: Autotaxin LPC Cascade Assay
# Assay type: biochemical
# Details: 5 nM autotaxin, 100 μM LPC, choline oxidase/HRP/Ampliflu Red fluorescence readout; read-out: IC50 ATX activity values, IC50
# Procedure: Autotaxin LPC Cascade Assay
# HA130 and Test Compounds:
# Highest final concentration is […] for HA130 (Echelon, B-0701) and 30 μM for test compounds. Prepare a 1 mM stock of HA130 and a 3 mM stock of each compound in 100% DMSO. Perform a 1:3 serial dilution in DMSO (transfer 5 μl of compound to 10 μl of DMSO). Add 240 μl of buffer to generate a top working concentration of 40 µM (HA130) and 120 µM (test compound) in 4% DMSO.
# Ampliflu Red—Prepare a stock of 5 mM from 100 mM in 100% DMSO. Further dilute to a working concentration of 400 μM in buffer (8% DMSO).
# Together with compound this yields a 2% DMSO final concentration.
# Choline Oxidase/HRP—0.8 U/ml CO and 8 U/ml HRP.
# Add 5 μl of ATX and 5 μl of compound in a 384 well plate (Corning 3676). Incubate for 10 mins at RT. Add 5 μl of LPC and incubate for 1 hr on the plate shaker. Prepare the CO/HRP and AR prior to use. Add 2.5 μl of CO/HRP and follow with 2.5 μl AR. Note order of addition, CO/HRP mix before AR. Read fluorescence intensity (λex/λem: 530/590 nm) kinetically for 30 min at RT on the Tecan M1000.
row,SMILES,IC50 [nM]
1,"CC(C)[C@@H](NC(=O)c1cc(C(F)(F)F)ccc1F)C(=O)N1CCC(C)(Nc2ccc(S(C)(=O)=O)cc2)CC1 [Example 27, (R)-2-Fluoro-N-(3-methyl-1-(4-methyl-4-(4-(methylsulfonyl)phenylamino)piperidin-1-yl)-1-oxobutan-2-yl)-5-(trifluoromethyl)benzamide]",100 to 500
2,"CCc1cc(C(=O)N[C@@H](C(=O)N2CCC(C)(Nc3ccc(S(C)(=O)=O)cc3)CC2)C(C)C)c(F)cc1C [Example 34, (R)-5-Ethyl-2-fluoro-4-methyl-N-(3-methyl-1-(4-methyl-4-(4-(methylsulfonyl)phenylamino)piperidin-1-yl)-1-oxobutan-2-yl)benzamide]",100 to 500
3,"CC(C)[C@@H](NC(=O)c1cc(OC(F)F)ccc1F)C(=O)N1CCC(C)(Nc2ccc(S(C)(=O)=O)cc2)CC1 [Example 28, (R)-5-(Difluoromethoxy)-2-fluoro-N-(3-methyl-1-(4-methyl-4-(4-(methylsulfonyl)phenylamino)piperidin-1-yl)-1-oxobutan-2-yl)benzamide]",100 to 500
4,"CC(C)[C@@H](NC(=O)c1cc(OC(F)(F)F)ccc1F)C(=O)N1CCC(C)(NCc2ccc(S(C)(=O)=O)cc2)CC1 [Example 39, (R)-2-Fluoro-N-(3-methyl-1-(4-methyl-4-((4-(methylsulfonyl)benzyl)amino)piperidin-1-yl)-1-oxobutan-2-yl)-5-(trifluoromethoxy)benzamide]",10 to 100
5,"COc1ccc(NC2(C)CCN(C(=O)[C@H](NC(=O)c3cc(OC(F)(F)F)ccc3F)C(C)C)CC2)cc1 [Example 12, (R)-2-Fluoro-N-(1-(4-((4-methoxyphenyl)amino)-4-methylpiperidin-1-yl)-3-methyl-1-oxobutan-2-yl)-5-(trifluoromethoxy)benzamide]",100 to 500
6,"CCc1ccc(F)c(C(=O)N[C@@H](C(=O)N2CCC(Oc3ccc(S(C)(=O)=O)cc3)(C(=O)NC)CC2)C(C)C)c1 [Example 15, (R)-1-(2-(5-Ethyl-2-fluorobenzamido)-3-methylbutanoyl)-N-methyl-4-(4-(methylsulfonyl)phenoxy)piperidine-4-carboxamide]",500 to 5000
7,"CNC(=O)C1(Oc2ccccc2)CCN(C(=O)[C@H](NC(=O)c2cccc(C)c2F)C(C)C)CC1 [Example 14, (R)-1-(2-(2-Fluoro-3-methylbenzamido)-3-methylbutanoyl)-N-methyl-4-phenoxypiperidine-4-carboxamide]",500 to 5000
8,"COc1ccc(NC2(C)CCN(C(=O)[C@H](NC(=O)c3cccc(OC(F)(F)F)c3)C(C)C)CC2)cc1 [Example 8, (R)—N-(1-(4-((4-Methoxyphenyl)amino)-4-methylpiperidin-1-yl)-3-methyl-1-oxobutan-2-yl)-3-(trifluoromethoxy)benzamide]",100 to 500
9,"CC(C)[C@@H](NC(=O)c1cc(C(C)(C)C)ccc1F)C(=O)N1CCC(C)(Nc2ccc(S(C)(=O)=O)cc2)CC1 [Example 29, (R)-5-tert-Butyl-2-fluoro-N-(3-methyl-1-(4-methyl-4-(4-(methylsulfonyl)phenylamino)piperidin-1-yl)-1-oxobutan-2-yl)benzamide]",500 to 5000
10,"Cc1cccc(C(=O)N[C@@H](C(=O)N2CCC(C)(Nc3ccc(S(C)(=O)=O)cc3)CC2)C(C)C)c1F [Example 3, (R)-2-Fluoro-3-methyl-N-(3-methyl-1-(4-methyl-4-(4-(methylsulfonyl)phenylamino)piperidin-1-yl)-1-oxobutan-2-yl)benzamide]",500 to 5000
11,"CCc1ccc(F)c(C(=O)N[C@@H](C(=O)N2CCC(Oc3ccc(S(C)(=O)=O)cc3)(C(=O)N(C)C)CC2)C(C)C)c1 [Example 16, (R)-1-(2-(5-Ethyl-2-fluorobenzamido)-3-methylbutanoyl)-N,N-dimethyl-4-(4-(methylsulfonyl)phenoxy)piperidine-4-carboxamide]",500 to 5000
12,"CCc1ccc(F)c(C(=O)N[C@@H](C(=O)N2CCC(C)(CNc3ccc(S(C)(=O)=O)cc3)CC2)C(C)C)c1 [Example 35, (R)-5-Ethyl-2-fluoro-N-(3-methyl-1-(4-methyl-4-((4-(methylsulfonyl)phenylamino)methyl)piperidin-1-yl)-1-oxobutan-2-yl)benzamide]",100 to 500
13,"CC(C)[C@@H](NC(=O)c1cc(C(F)(F)F)ccc1F)C(=O)N1CCC(Nc2ccc(S(C)(=O)=O)cc2)CC1 [Example 22, (R)-2-Fluoro-N-(3-methyl-1-(4-(4-(methylsulfonyl)phenylamino)piperidin-1-yl)-1-oxobutan-2-yl)-5-(trifluoromethyl)benzamide]",≥ 10000
14,"Cc1cccc(C(=O)N[C@@H](C(=O)N2CCC(C)(N(C)c3ccccc3)CC2)C(C)C)c1 [Example 20, (R)-3-Methyl-N-(3-methyl-1-(4-methyl-4-(methyl(phenyl)amino)piperidin-1-yl)-1-oxobutan-2-yl)benzamide]",500 to 5000
15,"CC(C)[C@@H](NC(=O)c1cccc(OC(F)(F)F)c1)C(=O)N1CCC(C)(Nc2ccc(C(=O)O)cc2)CC1 [Example 9, (R)-4-((4-Methyl-1-(3-methyl-2-(3-(trifluoromethoxy)benzamido)butanoyl)piperidin-4-yl)amino)benzoic acid]",100 to 500
16,"CC(C)[C@@H](NC(=O)c1cccc(OC(F)(F)F)c1)C(=O)N1CCC(C)(NCc2ccc(S(C)(=O)=O)cc2)CC1 [Example 41, (R)—N-(3-Methyl-1-(4-methyl-4-((4-(methylsulfonyl)benzyl)amino)piperidin-1-yl)-1-oxobutan-2-yl)-3-(trifluoromethoxy)benzamide]",100 to 500
17,"CC(C)Cc1ccc(F)c(C(=O)N[C@@H](C(=O)N2CCC(C)(Nc3ccc(S(C)(=O)=O)cc3)CC2)C(C)C)c1 [Example 31, (R)-2-Fluoro-5-isobutyl-N-(3-methyl-1-(4-methyl-4-(4-(methylsulfonyl)phenylamino)piperidin-1-yl)-1-oxobutan-2-yl)benzamide]",10 to 100
18,"Cc1cccc(C(=O)N[C@@H](C(=O)N2CCC(C)(Nc3cccc(C#N)c3)CC2)C(C)C)c1F [Example 2, (R)—N-(1-(4-(3-Cyanophenylamino)-4-methylpiperidin-1-yl)-3-methyl-1-oxobutan-2-yl)-2-fluoro-3-methylbenzamide]",5000 to 10000
19,"CC(C)[C@@H](NC(=O)c1cc(OC(F)(F)F)ccc1F)C(=O)N1CCC(C)(NC(=O)c2ccc(S(C)(=O)=O)cc2)CC1 [Example 37, (R)-2-Fluoro-N-(3-methyl-1-(4-methyl-4-(4-(methylsulfonyl)benzamido)piperidin-1-yl)-1-oxobutan-2-yl)-5-(trifluoromethoxy)benzamide]",500 to 5000
20,"CCc1ccc(F)c(C(=O)N[C@@H](C(=O)N2CCC(C)(Nc3ccc(S(C)(=O)=O)cc3)CC2)C(C)C)c1 [Example 4, (R)-5-Ethyl-2-fluoro-N-(3-methyl-1-(4-methyl-4-(4-(methylsulfonyl)phenylamino)piperidin-1-yl)-1-oxobutan-2-yl)benzamide]",10 to 100
21,"CC(C)[C@@H](NC(=O)c1cccc(OC(F)(F)F)c1)C(=O)N1CCC(C)(NC(=O)c2ccc(S(C)(=O)=O)cc2)CC1 [Example 38, (R)—N-(3-Methyl-1-(4-methyl-4-(4-(methylsulfonyl)benzamido)piperidin-1-yl)-1-oxobutan-2-yl)-3-(trifluoromethoxy)benzamide]",500 to 5000
22,"CC(C)c1ccc(F)c(C(=O)N[C@@H](C(=O)N2CCC(C)(Nc3ccc(S(C)(=O)=O)cc3)CC2)C(C)C)c1 [Example 36, (R)-2-Fluoro-5-isopropyl-N-(3-methyl-1-(4-methyl-4-(4-(methylsulfonyl)phenylamino)piperidin-1-yl)-1-oxobutan-2-yl)benzamide]",10 to 100
23,"CC(C)[C@@H](NC(=O)c1cc(Cc2ccccc2)ccc1F)C(=O)N1CCC(C)(Nc2ccc(S(C)(=O)=O)cc2)CC1 [Example 30, (R)-5-Benzyl-2-fluoro-N-(3-methyl-1-(4-methyl-4-(4-(methylsulfonyl)phenylamino)piperidin-1-yl)-1-oxobutan-2-yl)benzamide]",500 to 5000
24,"CC(C)[C@@H](NC(=O)c1cc(-c2ccccc2)ccc1F)C(=O)N1CCC(C)(Nc2ccc(S(C)(=O)=O)cc2)CC1 [Example 32, (R)-4-Fluoro-N-(3-methyl-1-(4-methyl-4-(4-(methylsulfonyl)phenylamino)piperidin-1-yl)-1-oxobutan-2-yl)biphenyl-3-carboxamide]",100 to 500
25,"CC(=O)Nc1ccc(N(C)C2(C)CCN(C(=O)[C@H](NC(=O)c3cc(C(F)(F)F)ccc3F)C(C)C)CC2)cc1 [Example 19, (R)—N-(1-(4-(4-Acetamidophenyl(methyl)amino)-4-methylpiperidin-1-yl)-3-methyl-1-oxobutan-2-yl)-2-fluoro-5-(trifluoromethyl)benzamide]",100 to 500
26,"CC(C)[C@@H](NC(=O)c1cc(C(F)(F)F)ccc1F)C(=O)N1CCC(Nc2ccc3[nH]ncc3c2)CC1 [Example 23, (R)—N-(1-(4-(1H-Indazol-5-ylamino)piperidin-1-yl)-3-methyl-1-oxobutan-2-yl)-2-fluoro-5-(trifluoromethyl)benzamide]",5000 to 10000
27,"CC(C)[C@@H](NC(=O)c1cc(C(F)(F)F)ccc1F)C(=O)N1CCC(Nc2ccc(C(=O)O)cc2)CC1 [Example 24, (R)-4-(1-(2-(2-Fluoro-5-(trifluoromethyl)benzamido)-3-methylbutanoyl)piperidin-4-ylamino)benzoic acid]",≥ 10000
